Read-outs that look alike come from different tables or passages of the source.
Key:
[1] = test system: SMN protein in spinal muscular atrophy (SMA) patient fibroblasts (GM03813, Coriell); experiment: SMN protein assay, Mesoscale Discovery (MSD); format: cell-based, human; conditions: read-out: SMN2 protein EC50
Method: Example A12: SMN Protein Assay
Compounds are tested on spinal muscular atrophy (SMA) patient fibroblasts (GM03813, Coriell) at doses ranging from 2.5 μM to 0.6 nM. 7000 cells/well are seeded in 96-well plates. Compounds are incubated for 48 hours and the cells were lysed with 100 μL of lysis buffer. 20 μL of lysate is used for SMN protein measurement by Mesoscale Discovery (MSD) assay developed by PharmOptima (Michigan). A standard curve prepared with SMN protein ranging from 1 μg/ml to 19.5 pg/ml is used in each MSD plate to calculate the absolute SMN protein amount in each sample.

[2] = test system: mHTT protein in GM04724 (CAG 70/20) Huntington's disease patient lymphoblast cells; experiment: mHTT protein assay, 2B7-MW1 assay via Mesoscale Discovery (MSD); format: cell-based, human
Method: Example A10: mHTT Protein Assay
Compounds are tested on GM04724 (CAG 70/20) Huntington's disease patient lymphoblast cells at doses ranging from 10 μM to 0.6 nM. 4,500 cells/well are seeded in 384 well plates. One plate replica is carried out for parallel viability testing by CellTiter Glo (CTG). Compounds are incubated for 48 hours. mHTT protein levels are assessed by the 2B7-MW1 assay via Mesoscale Discovery (MSD) as previously reported (Macdonald et al., 2014). The antibody pair is comprised of previously characterized monoclonals (2B7 and MW1) interrogating two regions for HTT conformation and biological properties: the N, 17 domain and the polyQ domain (Baldo et al., 2012; Ko et., 2001). 2B7-MW1 is […] specific levels of HTT at the time of treatment. 2B7-MW1 is dependent on polyQ expansion (e.g., the higher the expansion the higher the signal) and on mHTT size (e.g., a similar polyQ will give higher signal with smaller HTT size). The viability readout is carried out by CTG according to the manufacturer's instructions.

[3] = test system: SMN FL and SMN Δ7 in spinal muscular atrophy (SMA) patient fibroblasts (GM03813, Coriell); experiment: Quantitative splicing assay (SMN), qPCR; format: cell-based, human; conditions: read-out: SMN2 Splicing FL EC50
Method: Spinal muscular atrophy (SMA) patient fibroblasts (GM03813, Coriell) are plated in 96-well plates at 50,000 cells/well. […] Treated cells are lysed and cDNA synthesized using the Fast Advanced Cells-to-Ct kit (Thermofisher A35378) according to the manufacturer's instructions. 2 μL of each cDNA are used in qPCR reactions. […] Reactions are run in a Quant Studio 6 qPCR instrument with default settings.

[4] = test system: MDR1-MDCK cell monolayers; experiment: Blood-brain-barrier (BBB) penetration potential via MDCK-MDR1 permeability assay
[5] = test system: MDR1 (P-gp); experiment: as above; conditions: dog; for efflux ratio at 120 min, 5 μM: MDCK-MDR1, pH 7.4, MDCK-MDR1: Efflux; for Papp A→B at 120 min, 5 μM: MDCK-MDR1, pH 7.4, MDCK-MDR1: Papp A-B; for Papp B→A at 120 min, 5 μM: MDCK-MDR1, pH 7.4, MDCK-MDR1: Papp B-A
[6] = test system: MDR1-MDCK cell monolayers; conditions: dog, MDCK-MDR1, 120 min, 5 μM, pH 7.4
[7] = test system: MDR1 (P-gp); experiment: in vitro; conditions: dog, MDCK-MDR1, pH 7.4
[8] = test system: MDR1; experiment: Blood-brain-barrier (BBB) penetration potential via MDCK-MDR1 permeability assay; conditions: dog, MDCK-MDR1, pH 7.4, MDCK-MDR1: Efflux
[9] = SMA patient fibroblasts GM03813, 48 hours, MSD
[10] = GM04724 Huntington's disease patient lymphoblasts
[11] = Homo sapiens, Fibroblast, 24 h, SMA patient fibroblasts GM03813, 24 h, qPCR
[12] = SMA patient fibroblasts (GM03813), 48 hours
[13] = GM04724 (CAG 70/20) Huntington's disease patient lymphoblasts
[14] = Homo sapiens, Fibroblast, 24 h, SMA patient fibroblasts (GM03813), 24 h

Row | SMILES | EC50 [1, 9] [nM] | EC50 [2, 10] [nM] | MDCK-MDR1: % Recov A-B ([4]; A-B direction) [%] | MDCK-MDR1: % Recov B-A ([4]; B-A direction) [%] | Papp A→B at 120 min, 5 μM ([5]; A-B direction) [×10⁻⁶ cm/s] | Papp B→A at 120 min, 5 μM ([5]; B-A direction) [×10⁻⁶ cm/s] | EC50 [1, 12] [nM] | efflux ratio at 120 min, 5 μM ([8]; efflux ratio) | further results
1 | CN(c1ccc(-c2cc3cnccc3cc2O)nn1)[C@@H]1C[C@H]2CC[C@H](N2)[C@@H]1F (single isomer, unassigned) [Compound 7B] | 0.01 to 15 | 51 to 100 | 69 | 89 |  |  |  |  | EC50 ([3]; SMA patient fibroblasts GM03813, 24 h, qPCR): 51 to 100 nM; MDCK-MDR1: Papp A-B ([4]; A-B direction): 4.27 10^−6, cm/s; MDCK-MDR1: Papp B-A ([4]; B-A direction): 36.1 10^−6, cm/s; MDCK-MDR1: Efflux ([4]; efflux ratio): 8
2 | CN(c1ccc(-c2cc3ncccc3cc2O)nn1)[C@@H]1C[C@H]2CC(F)(F)[C@@H](C1)N2 [Compound 46A, 7-(6-(((1S,3R,5R)-6,6-difluoro-8-azabicyclo[3.2.1]octan-3-yl)(methyl)amino)pyridazin-3-yl)quinolin-6-ol] | 16 to 50 | 16 to 50 | 68 | 89 | 31.7 | 29.2 |  |  | EC50 [3, 11]: 501 to 10000 nM; efflux ratio at 120 min, 5 μM ([5]; efflux ratio): 1
3 | CN(c1ccc(-c2cc3ccncc3cc2O)nn1)[C@H]1C[C@@H]2CC(F)(F)[C@H](C1)N2 [Compound 125B, 6-(6-(((1R,3S,5S)-6,6-difluoro-8-azabicyclo[3.2.1]octan-3-yl)(methyl)amino)pyridazin-3-yl)isoquinolin-7-ol] |  |  |  |  |  |  | 16 to 50 |  | EC50 [2, 13]: 51 to 100 nM; EC50 [3, 14]: 16 to 50 nM; efflux ratio at 120 min, 5 μM [5]: 3; Papp A→B at 120 min, 5 μM ([5]; A-B): 15.6 ×10⁻⁶ cm/s; Papp B→A at 120 min, 5 μM ([5]; B-A): 53.2 ×10⁻⁶ cm/s; MDCK-MDR1: % Recov A-B ([4]; A-B): 67%; MDCK-MDR1: % Recov B-A ([4]; B-A): 81%
4 | CN(c1ccc(-c2cc3cnccc3cc2O)nn1)[C@H]1C[C@@H]2CC(F)(F)[C@H](C1)N2 [Compound 126B, 7-(6-(((1R,3S,5S)-6,6-difluoro-8-azabicyclo[3.2.1]octan-3-yl)(methyl)amino)pyridazin-3-yl)isoquinolin-6-ol] |  |  |  |  |  |  | 101 to 500 |  | mHTT protein EC50 [2, 13]: E (501 ≤ E ≤ 10.000); MDCK-MDR1: % Recov A-B [6]: 75%; MDCK-MDR1: % Recov B-A [6]: 88%; Papp A→B at 120 min, 5 μM [7]: 12.6 ×10⁻⁶ cm/s; Papp B→A at 120 min, 5 μM [7]: 39.4 ×10⁻⁶ cm/s; efflux ratio at 120 min, 5 μM [7]: 3
5 | Cc1nc2cc(-c3ccc(N(C)[C@@H]4C[C@H]5CC[C@H](N5)[C@@H]4F)nn3)c(O)cc2c(=O)n1CC(F)(F)F [Compound 113A, 7-(6-(((1S,2S,3R,5R)-2-fluoro-8-azabicyclo[3.2.1]octan-3-yl)(methyl)amino)pyridazin-3-yl)-6-hydroxy-2-methyl-3-(2,2,2-trifluoroethyl)quinazolin-4(3H)-one] |  |  |  |  |  |  | 0.01 to 15 |  | mHTT protein EC50 [2, 13]: E (501 ≤ E ≤ 10.000); Papp A→B at 120 min, 5 μM ([5]; A-B): 0.2 ×10⁻⁶ cm/s; Papp B→A at 120 min, 5 μM ([5]; B-A): 66.9 ×10⁻⁶ cm/s; efflux ratio at 120 min, 5 μM [8]: 333; MDCK-MDR1: % Recov A-B ([4]; A-B): 96%; MDCK-MDR1: % Recov B-A ([4]; B-A): 99%
6 | CN(c1ccc(-c2ccc(-c3cnn(C)c3)cc2O)nn1)[C@@H]1C[C@H]2CCC[C@H](N2)[C@@H]1F [Compound 15A, 2-(6-(((1S,2S,3R,5R)-2-fluoro-9-azabicyclo[3.3.1]nonan-3-yl)(methyl)amino)pyridazin-3-yl)-5-(1-methyl-1H-pyrazol-4-yl)phenol] | 0.01 to 15 | 0.01 to 15 | 61 | 70 | 2.76 | 34.4 |  | 12 | 
7 | CN(c1ccc(-c2cc3cnccc3cc2O)nn1)[C@@H]1C[C@H]2CC(F)(F)[C@@H](C1)N2 [Compound 126A, 7-(6-(((1S,3R,5R)-6,6-difluoro-8-azabicyclo[3.2.1]octan-3-yl)(methyl)amino)pyridazin-3-yl)isoquinolin-6-ol] |  |  |  |  |  |  | 0.01 to 15 |  | EC50 [2, 13]: 51 to 100 nM; EC50 [3, 14]: 16 to 50 nM; efflux ratio at 120 min, 5 μM [5]: 3; Papp A→B at 120 min, 5 μM ([5]; A-B): 13.7 ×10⁻⁶ cm/s; Papp B→A at 120 min, 5 μM ([5]; B-A): 35.3 ×10⁻⁶ cm/s; MDCK-MDR1: % Recov A-B ([4]; A-B): 80%; MDCK-MDR1: % Recov B-A ([4]; B-A): 92%
8 | Cc1cnc(-c2ccc(-c3ccc(N(C)[C@@H]4C[C@H]5CCC[C@H](N5)[C@@H]4F)nn3)c(O)c2)cn1 [Compound 26A, 2-(6-(((1S,2S,3R,5R)-2-fluoro-9-azabicyclo[3.3.1]nonan-3-yl)(methyl)amino)pyridazin-3-yl)-5-(5-methylpyrazin-2-yl)phenol] | 51 to 100 | 101 to 500 | 65 | 77 | 2.09 | 43.6 |  | 21 | 
9 | CN(c1ccc(-c2cc3ncccc3cc2O)nn1)[C@H]1C[C@@H]2CC(F)(F)[C@H](C1)N2 [Compound 46B, 7-(6-(((1R,3S,5S)-6,6-difluoro-8-azabicyclo[3.2.1]octan-3-yl)(methyl)amino)pyridazin-3-yl)quinolin-6-ol] | 16 to 50 | 101 to 500 | 68 | 86 | 32 | 31.6 |  |  | EC50 [3, 11]: 101 to 500 nM; efflux ratio at 120 min, 5 μM ([5]; efflux ratio): 1
10 | CN(c1ccc(-c2ccc(-n3cnc(Cl)c3)cc2O)nn1)[C@H]1C[C@@H]2CC(F)(F)[C@H](C1)N2 [Compound 37B, 5-(4-chloro-1H-imidazol-1-yl)-2-(6-(((1R,3S,5S)-6,6-difluoro-8-azabicyclo[3.2.1]octan-3-yl)(methyl)amino)pyridazin-3-yl)phenol] | 101 to 500 | 51 to 100 | 54 | 70 | 19 | 32.7 |  | 2 | 
11 | CN(c1ccc(-c2cc3cncnc3cc2O)nn1)[C@@H]1C[C@H]2CC[C@H](N2)[C@@H]1F [Compound 75A, 6-(6-(((1S,2S,3R,5R)-2-fluoro-8-azabicyclo[3.2.1]octan-3-yl)(methyl)amino)pyridazin-3-yl)quinazolin-7-ol] | 51 to 100 | 101 to 500 | 101 | 100 | 2.31 | 50.3 |  | 22 | 
12 | COc1cn(-c2ccc(-c3ccc(N(C)[C@H]4C[C@@H]5CC(F)(F)[C@H](C4)N5)nn3)c(O)c2)cn1 [Compound 19B, 2-(6-(((1R,3S,5S)-6,6-difluoro-8-azabicyclo[3.2.1]octan-3-yl)(methyl)amino)pyridazin-3-yl)-5-(4-methoxy-1H-imidazol-1-yl)phenol] | 51 to 100 |  | 91 | 88 | 12.2 | 63.3 |  | 5 | mHTT protein EC50 [2, 10]: E (501 ≤ E ≤ 10.000)
13 | CN(c1ccc(-c2cc3c(=O)n(C)ccc3s2)nn1)[C@@H]1C[C@H]2CC[C@H](N2)[C@@H]1F (single isomer, unassigned) [Compound 68A] | 51 to 100 | 101 to 500 | 92 | 78 | 0.41 | 45.6 |  | 111 | 

Source: patent US12509460B2 (Skyhawk Therapeutics, Inc., priority 2019, dated 2025)
